Assay results published in US9309262B2 (ABT Holding Company, priority 2013, dated 2016).

Biological target: T1, human 5HT2c receptor (VSV isoform) (Homo sapiens, UniProt P28335, I156V/I160V/N158S)
T1 construct: expressed in transfected cells; host or cells: HEK 293 EBNA, stably transfected
T1 sequence (P28335 33-458 I156V/N158S/I160V): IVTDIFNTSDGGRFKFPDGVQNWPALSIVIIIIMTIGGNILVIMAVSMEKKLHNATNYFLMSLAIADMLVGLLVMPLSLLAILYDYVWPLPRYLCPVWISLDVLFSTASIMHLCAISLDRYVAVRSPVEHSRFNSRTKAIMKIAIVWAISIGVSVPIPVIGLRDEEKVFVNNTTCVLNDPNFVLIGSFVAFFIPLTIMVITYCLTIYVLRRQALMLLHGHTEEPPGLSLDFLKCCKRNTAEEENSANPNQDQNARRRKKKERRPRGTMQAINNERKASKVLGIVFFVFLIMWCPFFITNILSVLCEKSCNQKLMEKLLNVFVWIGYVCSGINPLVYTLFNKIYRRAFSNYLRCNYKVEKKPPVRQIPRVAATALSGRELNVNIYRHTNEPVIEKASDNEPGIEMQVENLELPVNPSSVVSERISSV
Test: cell-based

Row | SMILES | EC50
1 | CCn1ccc2sc3c(c21)CCNCC3 [Example 1, 3,4,5,6,7,8-Hexahydro-9-thia-3,6-diaza-cyclopenta[a]alazulene] | < 0.01 µM
2 | c1ccc(Cn2ccc3sc4c(c32)CCNCC4)cc1 [Example 4, 3-Benzyl-3,4,5,6,7,8-hexahydro-9-thia-3,6-diaza-cyclopenta[a]azulene] | < 0.01 µM
3 | Clc1ccc(-n2ccc3sc4c(c32)CCNCC4)cc1 [Example 5, 3-(4-Chloro-phenyl)-3,4,5,6,7,8-hexahydro-9-thia-3,6-diaza-cyclopenta[a]azulene] | < 1 µM
4 | Cc1ccccc1Cn1ccc2sc3c(c21)CCNCC3 [Example 6, 3-(2-Methyl-benzyl)-3,4,5,6,7,8-hexahydro-9-thia-3,6-diaza-cyclopenta[a]azulene] | < 0.01 µM
5 | Cc1cccc(Cn2ccc3sc4c(c32)CCNCC4)c1 [Example 7, 3-(3-Methyl-benzyl)-3,4,5,6,7,8-hexahydro-9-thia-3,6-diaza-cyclopenta[a]azulene] | < 0.01 µM
6 | Cc1ccc(Cn2ccc3sc4c(c32)CCNCC4)cc1 [Example 8, 3-(4-Methyl-benzyl)-3,4,5,6,7,8-hexahydro-9-thia-3,6-diaza-cyclopenta[a]azulene] | < 0.01 µM
7 | Clc1cccc(Cn2ccc3sc4c(c32)CCNCC4)c1 [Example 10] | < 0.01 µM
8 | Clc1ccc(Cn2ccc3sc4c(c32)CCNCC4)cc1 [Example 11] | < 0.01 µM
9 | Cc1ccc(-n2ccc3sc4c(c32)CCNCC4)cc1 [Example 13, 3-p-Tolyl-3,4,5,6,7,8-hexahydro-9-thia-3,6-diaza-cyclopenta[a]azulene] | < 0.1 µM
10 | COc1ccc(-n2ccc3sc4c(c32)CCNCC4)cc1 [Example 14, 3-(4-Methoxy-phenyl)-3,4,5,6,7,8-hexahydro-9-thia-3,6-diaza-cyclopenta[a]azulene] | < 0.1 µM
11 | Cc1cccc(-n2ccc3sc4c(c32)CCNCC4)c1 [Example 15, 3-m-Tolyl-3,4,5,6,7,8-hexahydro-9-thia-3,6-diaza-cyclopenta[a]azulene] | < 0.1 µM
12 | COc1cccc(-n2ccc3sc4c(c32)CCNCC4)c1 [Example 16, 3-(3-Methoxy-phenyl)-3,4,5,6,7,8-hexahydro-9-thia-3,6-diaza-cyclopenta[a]azulene] | < 1 µM
13 | Clc1cccc(-n2ccc3sc4c(c32)CCNCC4)c1 [Example 17, 3-(3-Chloro-phenyl)-3,4,5,6,7,8-hexahydro-9-thia-3,6-diaza-cyclopenta[a]azulene] | < 0.1 µM
14 | COc1cccc(Cn2ccc3sc4c(c32)CCNCC4)c1 [Example 18, 3-(3-Methoxy-benzyl)-3,4,5,6,7,8-hexahydro-9-thia-3,6-diaza-cyclopenta[a]azulene] | < 0.01 µM
15 | COc1ccc(Cn2ccc3sc4c(c32)CCNCC4)cc1 [Example 19, 3-(4-Methoxy-benzyl)-3,4,5,6,7,8-hexahydro-9-thia-3,6-diaza-cyclopenta[a]azulene] | < 0.1 µM
16 | c1cn(CC2CCCCC2)c2c3c(sc12)CCNCC3 [Example 20, 3-Cyclohexylmethyl-3,4,5,6,7,8-hexahydro-9-thia-3,6-diaza-cyclopenta[a]azulene] | < 0.1 µM
17 | c1ccc2c(Cn3ccc4sc5c(c43)CCNCC5)cccc2c1 [Example 21, 3-Naphthalen-1-ylmethyl-3,4,5,6,7,8-hexahydro-9-thia-3,6-diaza-cyclopenta[a]azulene] | < 0.01 µM
18 | Clc1cccc(Cn2ccc3sc4c(c32)CCNCC4)c1Cl [Example 22, 3-(2,3-Dichloro-benzyl)-3,4,5,6,7,8-hexahydro-9-thia-3,6-diaza-cyclopenta[a]azulene] | < 0.01 µM
19 | Clc1ccc(Cn2ccc3sc4c(c32)CCNCC4)cc1Cl [Example 23, 3-(3,4-Dichloro-benzyl)-3,4,5,6,7,8-hexahydro-9-thia-3,6-diaza-cyclopenta[a]azulene] | < 0.01 µM
20 | c1cnc2c(Cn3ccc4sc5c(c43)CCNCC5)cccc2c1 [Example 24, 3-Quinolin-8-ylmethyl-3,4,5,6,7,8-hexahydro-9-thia-3,6-diaza-cyclopenta[a]azulene] | < 0.1 µM
21 | c1cc(Cn2ccc3sc4c(c32)CCNCC4)c2ccncc2c1 [Example 25, 3-Isoquinolin-5-ylmethyl-3,4,5,6,7,8-hexahydro-9-thia-3,6-diaza-cyclopenta[a]azulene] | < 0.01 µM
22 | c1ccc2c(Cn3ccc4sc5c(c43)CCNCC5)nccc2c1 [Example 26, 3-Isoquinolin-1-ylmethyl-3,4,5,6,7,8-hexahydro-9-thia-3,6-diaza-cyclopenta[a]azulene] | < 0.01 µM
